Experimental data reported in ChEMBL document CHEMBL1151843, “Chromones from the endophytic fungus Pestalotiopsis sp. isolated from the chinese mangrove plant Rhizophora mucronata” (J Nat Prod, 2009).
Values after ≈ are worked out from the molar mass of the structure shown.

What follows are compounds tested on L5178Y (assay: Cytotoxicity against mouse L5178Y cells after 72 hrs by MTT assay). Settings: Mus musculus, L5178Y, 72 h; read-out: EC50; call rule not given here.
Type: functional, cell-based
CCCCCc1cc(=O)c2c(CC(=O)OC)cc(O)cc2o1 [PESTALOTIOPSONE F] showed an EC50 of 8.93 µg/mL (≈ 29.3 µM).

Same assay, conditions: l5178y
With Cc1cc(O)cc2oc(C[C@H](C)O)cc(=O)c12 the EC50 was “Not Active”.
With COC(=O)Cc1cc(O)cc2oc(CCCCCC(C)O)cc(=O)c12 (configuration not stated) [PESTALOTIOPSONE D] the EC50 was “Not Active”.
In the case of CCCCCCCc1cc(=O)c2c(CC(=O)OCC)cc(O)cc2o1 [PESTALOTIOPSONE B], the EC50 was “Not Active”.
With CCCCCCCc1cc(=O)c2c(CC(=O)OC)cc(O)cc2o1 [PESTALOTIOPSONE A] the EC50 was “Not Active”.
CCCCCCCc1cc(=O)c2c(CC(=O)O)cc(O)cc2o1 [PESTALOTIOPSONE C] was tested, and the EC50 was “Not Active”.
CCOC(=O)Cc1cc(O)cc2oc(CCCCCC(C)O)cc(=O)c12 (configuration not stated) [PESTALOTIOPSONE E] was tested, and the EC50 was “Not Active”.
